Test results as given in patent US7329652B2, “Diaminotriazole compounds useful as protein kinase inhibitors” (Vertex Pharamaceuticals Incorporated, priority 2004, dated 2008).

Legend:
[1] = target: JAK-2 enzyme (Homo sapiens, UniProt O60674); assay: JAK2 inhibition assay (radiometric 33P filter assay); assay type: biochemical; details: 15 μM poly(Glu)4Tyr, 12 μM ATP; read-out: JAK2 inhibition data (Ki)
In short: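 JAK-2 enzyme in 100 mM HEPES pH 7.4, 1 mM DTT, 10 mM MgCl2, 25 mM NaCl, 0.01% BSA, with final 12 μM [33P]ATP and 15 μM poly(Glu)4Tyr. Reactions ran 20 min at 25 °C and were stopped with TCA. 33P incorporation was counted after glass-fibre filtration.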

[2] = target: T1, JAK3 (Homo sapiens, UniProt P52333); assay: JAK3 inhibition assay (radiometric 33P filter assay); assay type: biochemical; details: 1 μM poly(Glu)4Tyr, 5 μM ATP, 1 nM JAK3, 25° C.; read-out: JAK3 inhibition data (Ki)
T1 sequence (P52333 1-1124): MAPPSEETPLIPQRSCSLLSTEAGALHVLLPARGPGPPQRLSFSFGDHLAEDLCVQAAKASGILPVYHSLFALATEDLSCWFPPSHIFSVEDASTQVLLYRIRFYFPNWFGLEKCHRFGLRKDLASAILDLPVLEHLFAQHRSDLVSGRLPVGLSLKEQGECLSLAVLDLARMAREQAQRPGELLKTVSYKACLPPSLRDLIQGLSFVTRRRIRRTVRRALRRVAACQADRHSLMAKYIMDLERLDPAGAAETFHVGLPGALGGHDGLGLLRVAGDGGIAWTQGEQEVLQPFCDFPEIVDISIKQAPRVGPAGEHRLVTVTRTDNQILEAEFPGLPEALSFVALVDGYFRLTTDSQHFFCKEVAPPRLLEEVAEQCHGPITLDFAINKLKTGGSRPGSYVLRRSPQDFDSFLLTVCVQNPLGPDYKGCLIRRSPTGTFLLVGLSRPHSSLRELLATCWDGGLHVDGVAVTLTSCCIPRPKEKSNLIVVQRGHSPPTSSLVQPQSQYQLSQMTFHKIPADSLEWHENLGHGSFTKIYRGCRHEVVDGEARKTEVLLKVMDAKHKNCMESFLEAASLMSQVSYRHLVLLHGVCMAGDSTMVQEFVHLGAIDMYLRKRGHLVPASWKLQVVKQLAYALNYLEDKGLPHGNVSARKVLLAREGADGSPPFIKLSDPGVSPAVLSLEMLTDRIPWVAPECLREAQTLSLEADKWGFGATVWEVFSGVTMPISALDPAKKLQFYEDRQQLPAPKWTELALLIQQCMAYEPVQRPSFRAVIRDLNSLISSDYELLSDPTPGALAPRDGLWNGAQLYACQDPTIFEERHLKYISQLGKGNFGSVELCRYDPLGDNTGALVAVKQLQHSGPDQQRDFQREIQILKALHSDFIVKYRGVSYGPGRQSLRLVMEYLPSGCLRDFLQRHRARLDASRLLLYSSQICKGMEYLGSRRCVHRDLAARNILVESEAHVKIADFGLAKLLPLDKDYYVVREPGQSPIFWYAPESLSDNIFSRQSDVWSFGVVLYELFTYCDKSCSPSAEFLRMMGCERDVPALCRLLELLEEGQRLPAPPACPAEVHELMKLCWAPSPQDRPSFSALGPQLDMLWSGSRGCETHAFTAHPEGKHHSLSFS
In short: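 Final conditions were 1 nM JAK3, 5 μM ATP (200 uCi/μmole) and 1 μM poly(Glu)4Tyr in 100 mM HEPES pH 7.4, 10 mM MgCl2, 25 mM NaCl, 1 mM DTT and 0.01% BSA. After 20 min at 25 °C the reaction was stopped with TCA. 33P incorporation was counted after glass-fibre filtration.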

Chain of JAK-2 enzyme (O60674 whole entry, species assumed): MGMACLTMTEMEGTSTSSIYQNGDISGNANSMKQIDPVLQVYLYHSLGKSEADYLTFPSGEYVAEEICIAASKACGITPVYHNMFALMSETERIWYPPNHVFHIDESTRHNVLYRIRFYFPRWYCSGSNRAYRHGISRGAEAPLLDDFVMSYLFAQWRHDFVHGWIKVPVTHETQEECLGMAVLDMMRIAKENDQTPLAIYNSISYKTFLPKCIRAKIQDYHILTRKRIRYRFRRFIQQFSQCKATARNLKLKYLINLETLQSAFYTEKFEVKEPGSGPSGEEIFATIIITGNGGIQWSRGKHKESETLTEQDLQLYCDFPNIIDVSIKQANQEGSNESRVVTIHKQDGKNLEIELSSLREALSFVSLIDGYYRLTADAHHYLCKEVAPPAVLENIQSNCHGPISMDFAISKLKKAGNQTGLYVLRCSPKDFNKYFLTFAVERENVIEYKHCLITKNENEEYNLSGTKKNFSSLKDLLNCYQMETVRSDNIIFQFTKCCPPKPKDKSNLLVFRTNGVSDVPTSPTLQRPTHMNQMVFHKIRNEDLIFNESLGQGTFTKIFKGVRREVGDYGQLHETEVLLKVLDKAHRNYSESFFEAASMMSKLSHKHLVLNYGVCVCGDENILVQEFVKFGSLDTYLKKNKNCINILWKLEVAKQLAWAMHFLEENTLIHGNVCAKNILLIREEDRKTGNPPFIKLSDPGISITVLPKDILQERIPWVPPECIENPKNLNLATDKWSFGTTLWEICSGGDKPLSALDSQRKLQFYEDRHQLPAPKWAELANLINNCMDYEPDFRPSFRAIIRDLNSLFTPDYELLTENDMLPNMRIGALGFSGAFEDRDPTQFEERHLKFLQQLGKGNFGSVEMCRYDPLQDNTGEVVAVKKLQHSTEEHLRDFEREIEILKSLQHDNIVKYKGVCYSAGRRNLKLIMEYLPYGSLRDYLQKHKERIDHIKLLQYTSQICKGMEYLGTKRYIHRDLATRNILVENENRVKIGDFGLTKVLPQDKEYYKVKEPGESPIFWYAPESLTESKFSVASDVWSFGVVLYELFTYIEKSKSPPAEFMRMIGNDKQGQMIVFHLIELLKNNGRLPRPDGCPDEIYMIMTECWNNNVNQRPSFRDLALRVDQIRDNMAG

Row | SMILES | Ki [1] | Ki [2]
1 | CCCOC(=O)N1CCN(c2ccc(Nc3nc(N)n(-c4ccnc(N5CCCN(C(=O)OC(C)C)CC5)c4)n3)cc2)CC1 [Compound 161] | 50 to 500 nM | 50 to 500 nM
2 | CCCNC(=O)Nc1ccc(Nc2nc(N)n(-c3ccnc(N4C[C@@H](C)N(C(C)=O)[C@@H](C)C4)c3)n2)cc1 [Compound 106] | < 50 nM | < 50 nM
3 | CCCOC(=O)Nc1ccc(Nc2nc(N)n(-c3ccnc(N4C[C@@H](C)N(C(C)=O)[C@@H](C)C4)c3)n2)cc1 [Compound 102] | < 50 nM | < 50 nM
4 | CCCOC(=O)N1CCN(c2ccc(Nc3nc(N)n(-c4ccnc(N5C[C@@H](C)N(C(C)=O)[C@@H](C)C5)c4)n3)cc2)CC1 [Compound 139] | < 50 nM | < 50 nM
5 | CCOC(=O)N1CCN(c2ccc(Nc3nc(N)n(-c4cc(N5C[C@@H](C)N(C(C)=O)[C@@H](C)C5)ncn4)n3)cc2)CC1 [Compound 54] | < 50 nM | < 50 nM
6 | CC(=O)N1CCCN(c2cc(-n3nc(Nc4ccc(NC(=O)c5cccnc5)cc4)nc3N)ncn2)CC1 [Compound 27] | < 50 nM | < 50 nM
7 | CCCOC(=O)N1CCCN(c2cc(-n3nc(Nc4ccc(N5CCN(S(=O)(=O)CC)CC5)cc4)nc3N)ccn2)CC1 [Compound 154] | 50 to 500 nM | 50 to 500 nM
8 | CC(=O)N1CCCN(c2cc(-n3nc(Nc4ccc(NC(=O)OC(C)C)cc4)nc3N)ncn2)CC1 [Compound 93] | < 50 nM | < 50 nM
9 | CC(=O)N1[C@H](C)CN(c2cc(-n3nc(Nc4ccc(N5CCN(C(=O)OC(C)C)CC5)cc4)nc3N)ccn2)C[C@@H]1C [Compound 143] | < 50 nM | < 50 nM
10 | CC(=O)CC(=O)N1CCCN(c2cc(-n3nc(Nc4ccc(N5CCOCC5)cc4)nc3N)ncn2)CC1 [Compound 6] | < 50 nM | < 50 nM
11 | CCCNC(=O)Nc1ccc(Nc2nc(N)n(-c3cc(N4C[C@@H](C)N(C(C)=O)[C@@H](C)C4)ncn3)n2)cc1 [Compound 68] | < 50 nM | < 50 nM
12 | CC(=O)N1CCCN(c2cc(-n3nc(Nc4ccc(N5CCN(C(=O)C6CCC6)CC5)cc4)nc3N)ncn2)CC1 [Compound 40] | < 50 nM | < 50 nM
13 | CCOC(=O)N1CCN(c2ccc(Nc3nc(N)n(-c4cc(NC)ncn4)n3)cc2)CC1 [Compound 167] | < 50 nM | < 50 nM
14 | CC(=O)N1[C@H](C)CN(c2cc(-n3nc(Nc4ccc(NC(=O)OC(C)C)cc4)nc3N)ccn2)C[C@@H]1C [Compound 103] | < 50 nM | < 50 nM
15 | CCCOC(=O)Nc1ccc(Nc2nc(N)n(-c3ccnc(N4CCCN(C(C)=O)CC4)c3)n2)cc1 [Compound 172] | 50 to 500 nM | < 50 nM
16 | CC(=O)N1CCCN(c2cc(-n3nc(Nc4ccc(N5CCCCC5)cc4)nc3N)ncn2)CC1 [Compound 13] | < 50 nM | < 50 nM
17 | CCOC(=O)Nc1ccc(Nc2nc(N)n(-c3cc(N4CCCN(C(C)=O)CC4)ncn3)n2)cc1 [Compound 91] | < 50 nM | < 50 nM
18 | CC(=O)N1CCCN(c2cc(-n3nc(Nc4ccc(NC(=O)OCC(C)C)cc4)nc3N)ncn2)CC1 [Compound 94] | < 50 nM | < 50 nM
19 | CC(=O)N1[C@H](C)CN(c2cc(-n3nc(Nc4ccc(N(C)C(=O)OC(C)(C)C)cc4)nc3N)ncn2)C[C@@H]1C [Compound 114] | < 50 nM | < 50 nM
20 | CC(=O)N1[C@H](C)CN(c2cc(-n3nc(Nc4ccc(NC(=O)NC(C)C)cc4)nc3N)ccn2)C[C@@H]1C [Compound 107] | < 50 nM | < 50 nM
21 | CC(=O)N1[C@H](C)CN(c2cc(-n3nc(Nc4ccc(NC(=O)Nc5c(F)cccc5F)cc4)nc3N)ncn2)C[C@@H]1C [Compound 73] | < 50 nM | < 50 nM

Row | SMILES | Ki [1] | Ki [2]
22 | CC(=O)N1CCCN(c2cc(-n3nc(Nc4ccc(NC(=O)NC5CCCCC5)cc4)nc3N)ncn2)CC1 [Compound 88] | < 50 nM | < 50 nM
23 | CCCOC(=O)Nc1ccc(Nc2nc(N)n(-c3cc(N4CCCN(C(C)=O)CC4)ncn3)n2)cc1 [Compound 92] | < 50 nM | < 50 nM
24 | CS(=O)(=O)N1CCCN(c2cc(-n3nc(Nc4ccc(N5CCOCC5)cc4)nc3N)ncn2)CC1 [Compound 7] | < 50 nM | < 50 nM
25 | CCCOC(=O)N1CCN(c2ccc(Nc3nc(N)n(-c4cc(N5CCCN(C(C)=O)CC5)ncn4)n3)cc2)CC1 [Compound 47] | < 50 nM | < 50 nM
26 | CC(=O)N1CCCN(c2cc(-n3nc(Nc4ccc(NC(=O)c5ccoc5)cc4)nc3N)ncn2)CC1 [Compound 29] | < 50 nM | < 50 nM
27 | CCNC(=O)N1CCN(c2ccc(Nc3nc(N)n(-c4cc(N5C[C@@H](C)N(C(C)=O)[C@@H](C)C5)ncn4)n3)cc2)CC1 [Compound 60] | < 50 nM | < 50 nM
28 | COC(=O)N1CCN(c2ccc(Nc3nc(N)n(-c4cc(N5C[C@@H](C)N(C(C)=O)[C@@H](C)C5)ncn4)n3)cc2)CC1 [Compound 53] | < 50 nM | < 50 nM
29 | COC(=O)Nc1ccc(Nc2nc(N)n(-c3cc(N4C[C@@H](C)N(C(C)=O)[C@@H](C)C4)ncn3)n2)cc1 [Compound 75] | < 50 nM | < 50 nM
30 | CCCOC(=O)N(C)c1ccc(Nc2nc(N)n(-c3cc(N4CCCN(C(C)=O)CC4)ncn3)n2)cc1 [Compound 129] | < 50 nM | < 50 nM
31 | CC(=O)N1CCCN(c2cc(-n3nc(Nc4ccc(N(C)C)cc4)nc3N)ncn2)CC1 [Compound 10] | < 50 nM | < 50 nM
32 | CC(=O)N1CCCN(c2cc(-n3nc(Nc4ccc(NC(=O)Oc5ccc(C)cc5)cc4)nc3N)ncn2)CC1 [Compound 96] | < 50 nM | < 50 nM
33 | CCOC(=O)N1CCCN(c2cc(-n3nc(Nc4ccc(N5CCN(S(=O)(=O)CC)CC5)cc4)nc3N)ccn2)CC1 [Compound 153] | 50 to 500 nM | 50 to 500 nM
34 | CC(=O)N1[C@H](C)CN(c2cc(-n3nc(Nc4ccc(N5CCN(C(=O)OCC(C)(C)C)CC5)cc4)nc3N)ncn2)C[C@@H]1C [Compound 57] | < 50 nM | < 50 nM
35 | CC(=O)N1[C@H](C)CN(c2cc(-n3nc(Nc4ccc(NC(=O)OC(C)(C)C)cc4)nc3N)ncn2)C[C@@H]1C [Compound 84] | < 50 nM | < 50 nM
36 | COC(=O)Nc1ccc(Nc2nc(N)n(-c3cc(N4CCCN(C(C)=O)CC4)ncn3)n2)cc1 [Compound 90] | < 50 nM | < 50 nM
37 | CC(=O)N1[C@H](C)CN(c2cc(-n3nc(Nc4ccc(N5CCN(C(=O)OC(C)(C)C)CC5)cc4)nc3N)ncn2)C[C@@H]1C [Compound 52] | < 50 nM | < 50 nM
38 | CCCCOC(=O)Nc1ccc(Nc2nc(N)n(-c3ccnc(N4CCCN(C(C)=O)CC4)c3)n2)cc1 [Compound 174] | 50 to 500 nM | 50 to 500 nM
39 | CC(=O)N1CCCN(c2cc(-n3nc(Nc4ccc(NC(=O)OCC(C)C)cc4)nc3N)ccn2)CC1 [Compound 175] | 50 to 500 nM | 50 to 500 nM
40 | CC(=O)N1[C@H](C)CN(c2cc(-n3nc(Nc4ccc(NC(=O)OCC(C)(C)C)cc4)nc3N)ccn2)C[C@@H]1C [Compound 104] | < 50 nM | < 50 nM
41 | CC(=O)N1CCCN(c2cc(-n3nc(Nc4ccc(NC(=O)OCC(C)(C)C)cc4)nc3N)ccn2)CC1 [Compound 176] | 50 to 500 nM | 50 to 500 nM
42 | CC(=O)N1CCCN(c2cc(-n3nc(Nc4ccc(NC(=O)OCC(C)(C)C)cc4)nc3N)ncn2)CC1 [Compound 95] | < 50 nM | < 50 nM
